B1: ATP7B^W1452A/L1455A: full-length ATP7B variant W1452A/L1455A with mutated LIR3 motif (protein)
chain: MPEQERQITAREGASRKILSKLSLPTRAWEPAMKKSFAFDNVGYEGGLDGLGPSSQVATSTVRILGMTCQSCVKSIEDRISNLKGIISMKVSLEQGSATVKYVPSVVCLQQVCHQIGDMGFEASIAEGKAASWPSRSLPAQEAVVKLRVEGMTCQSCVSSIEGKVRKLQGVVRVKVSLSNQEAVITYQPYLIQPEDLRDHVNDMGFEAAIKSKVAPLSLGPIDIERLQSTNPKRPLSSANQNFNNSETLGHQGSHVVTLQLRIDGMHCKSCVLNIEENIGQLLGVQSIQVSLENKTAQVKYDPSCTSPVALQRAIEALPPGNFKVSLPDGAEGSGTDHRSSSSHSPGSPPRNQVQGTCSTTLIAIAGMTCASCVHSIEGMISQLEGVQQISVSLAEGTATVLYNPSVISPEELRAAIEDMGFEASVVSESCSTNPLGNHSAGNSMVQTTDGTPTSVQEVAPHTGRLPANHAPDILAKSPQSTRAVAPQKCFLQIKGMTCASCVSNIERNLQKEAGVLSVLVALMAGKAEIKYDPEVIQPLEIAQFIQDLGFEAAVMEDYAGSDGNIELTITGMTCASCVHNIESKLTRTNGITYASVALATSKALVKFDPEIIGPRDIIKIIEEIGFHASLAQRNPNAHHLDHKMEIKQWKKSFLCSLVFGIPVMALMIYMLIPSNEPHQSMVLDHNIIPGLSILNLIFFILCTFVQLLGGWYFYVQAYKSLRHRSANMDVLIVLATSIAYVYSLVILVVAVAEKAERSPVTFFDTPPMLFVFIALGRWLEHLAKSKTSEALAKLMSLQATEATVVTLGEDNLIIREEQVPMELVQRGDIVKVVPGGKFPVDGKVLEGNTMADESLITGEAMPVTKKPGSTVIAGSINAHGSVLIKATHVGNDTTLAQIVKLVEEAQMSKAPIQQLADRFSGYFVPFIIIMSTLTLVVWIVIGFIDFGVVQRYFPNPNKHISQTEVIIRFAFQTSITVLCIACPCSLGLATPTAVMVGTGVAAQNGILIKGGKPLEMAHKIKTVMFDKTGTITHGVPRVMRVLLLGDVATLPLRKVLAVVGTAEASSEHPLGVAVTKYCKEELGTETLGYCTDFQAVPGCGIGCKVSNVEGILAHSERPLSAPASHLNEAGSLPAEKDAVPQTFSVLIGNREWLRRNGLTISSDVSDAMTDHEMKGQTAILVAIDGVLCGMIAIADAVKQEAALAVHTLQSMGVDVVLITGDNRKTARAIATQVGINKVFAEVLPSHKVAKVQELQNKGKKVAMVGDGVNDSPALAQADMGVAIGTGTDVAIEAADVVLIRNDLLDVVASIHLSKRTVRRIRINLVLALIYNLVGIPIAAGVFMPIGIVLQPWMGSAAMAASSVSVVLSSLQLKCYKKPDLERYEAQAHGHMKPLTASQVSVHIGMDDRWRDSPRATPWDQVSYVSQVSLSSLTSDKPSRHSAAADDDGDKASLALNGRDEEQYI

What was measured:
HepG2 WT cells [1] = assay: Autophagosome-lysosome fusion, tandem sensor RFP-GFP-LC3B, HepG2 WT; format: cell-based, human; conditions: 24 h, high CuSO4 concentration, significance reached at 800 µM, 30–50 cells per condition
Method: (§1) For the detection of the effect of copper on autophagosome-lysosome fusion, 50,000 cells of each HepG2 WT and HepG2 ATP7B^−/− were grown on laminin-coated coverslips for 24 h, transduced with BacMam-GFP-RFP-LC3B overnight according to the manufacturer’s recommendations. The cells were then treated with CuSO4 at a concentration range from 100 µM to 800 µM for 24 h, fixed with 4% paraformaldehyde for 15 min and finally stained with 250 ng/mL DAPI (Thermo Fisher scientific, Molecular Probes, D1306) for 5 min. The coverslips were fixed on a glass slide using Mowiol 4–88 (Sigma Aldrich, 81381). The fluorescence cell imaging was acquired using a confocal Zeiss LSM 780 microscope with a 63 × 1.40 Oil DIC M27. […] Red and yellow puncta count per cell was done using the particle analysis in image J. For protein ATP7B trafficking analysis, 50,000 cells of HepG2 WT and HepG2 ATP7B^−/− were cultured in a 500 µL cell culture medium on a laminin-coated coverslip for 24 h, then transfected with EGFP-ATP7B. After 6 h post transfection, cells were transduced with BacMam-RFP-Golgi or the BacMam-RFP-Lysosome overnight, then treated with various concentrations of CuSO4 or 200 µM of bathocuproine disulfonate (BCS) for 24 h or EBSS for 2 h, respectively. […] Pearson’s correlation coefficient was analyzed per cell using the colocalization threshold of ImageJ Fiji.

HepG2 ATP7B^−/− cells [2] = assay: Autophagy detection by western blot (LC3B-II/LC3B-I), HepG2 ATP7B-/-; format: cell-based, human; conditions: 24 h, even at 600 µM and 800 µM
Method: (§2) 5 × 10^5 HepG2 cells were cultured in 2 mL of DMEM medium supplemented with 10% FBS and 1% P/S. Once the cell reached 80% confluence, they were treated with varied concentration of CuSO4 (Sigma Aldrich, 209198) from 200 µM to 800 µM for 24 h. For the starvation induction, cells were additionally treated with Earle’s Balanced Salt Solution (EBSS) media (Sigma Aldrich, E3024) for 2 h with or without 50 µM chloroquine (CLQ) prior to lysis with RIPA buffer containing inhibitor cocktails (Roche Life Science, 11697498001). Protein concentration was determined to be sure that the protein of each sample was equally loaded on the Criterion TGX precast gel for western blot detection. ATP7B, GAPDH and LC3B-II/LC3B-I was determined using the above-mentioned antibodies. Western Blot analysis was carried out as described above.

HepG2 WT cells [3] = assay: Colocalization of EGFP-ATP7B-WT with TGN, lysosome (LAMP1) and LC3B markers; format: cell-based, human
Method: For the detection of the effect of copper on autophagosome-lysosome fusion, 50,000 cells of each HepG2 WT and HepG2 ATP7B^−/− were grown on laminin-coated coverslips for 24 h, transduced with BacMam-GFP-RFP-LC3B overnight according to the manufacturer’s recommendations. The cells were then treated with CuSO4 at a concentration range from 100 µM to 800 µM for 24 h, fixed with 4% paraformaldehyde for 15 min and finally stained with 250 ng/mL DAPI (Thermo Fisher scientific, Molecular Probes, D1306) for 5 min. The coverslips were fixed on a glass slide using Mowiol 4–88 (Sigma Aldrich, 81381). The fluorescence cell imaging was acquired using a confocal Zeiss LSM 780 microscope with a 63 × 1.40 Oil DIC M27. […] Red and yellow puncta count per cell was done using the particle analysis in image J. For protein ATP7B trafficking analysis, 50,000 cells of HepG2 WT and HepG2 ATP7B^−/− were cultured in a 500 µL cell culture medium on a laminin-coated coverslip for 24 h, then transfected with EGFP-ATP7B. After 6 h post transfection, cells were transduced with BacMam-RFP-Golgi or the BacMam-RFP-Lysosome overnight, then treated with various concentrations of CuSO4 or 200 µM of bathocuproine disulfonate (BCS) for 24 h or EBSS for 2 h, respectively. To detect LC3B or endogenous ATP7B, the fixed cells were incubated with anti-LC3B or anti-ATP7B antibodies at 4 °C overnight followed by secondary antibody incubation, Alexa Fluor 568 goat anti-rabbit, at temperature for 1 h in the dark. Pearson’s correlation coefficient was analyzed per cell using the colocalization threshold of ImageJ Fiji.

HepG2 WT cells [4] = assay: Autophagy detection by western blot (LC3B-II/LC3B-I), HepG2 WT; format: cell-based, human; conditions: 24 h treatment, 100–800 µM, effect at 600 µM and 800 µM
Method: as §2

HepG2 ATP7B^−/− cells [5] = assay: Autophagosome-lysosome fusion, tandem sensor RFP-GFP-LC3B, HepG2 ATP7B-/-; format: cell-based, human; conditions: 24 h, 800 µM, 30–50 cells per condition
Method: as §1

LC3B = molecular target: T1, LC3B (Homo sapiens, UniProt Q9GZQ8); assay: Pull-down with resin-bound GST-LC3B as bait from transfected HEK293H cell lysate; format: binding; conditions: 500 µg HEK293H lysate, western blot, repeated two times
T1 construct: His6 (N, cleaved yes); MBP (N, cleaved yes); made in house; host or cells: E. coli BL21-codonplus (DE3)-RIL
Method: GST tagged LC3B was used as a bait to trap the full-length ATP7B from a lysate obtained from ATP7B transfected human embryonic kidney 293 H cell line (HEK293H) cells. To this end, 100,000 cells of HEK293H were cultured in 1 mL of DMEM media (Thermo Fisher Scientific, 31966-047) plus 10% fetal bovine serum (FBS) (Fisher Scientific, 10309433) and 1% Penicillin-Streptomycin (P/S) (Thermo Fisher Scientific, 15140122). Once the cells reached 80% confluence, cells were transfected with pIRES-GFP carrying full-length ATP7B (NM_000053.4) or its W1452A/L1455A mutant using Lipofectamine LTX and plus reagent (Invitrogen, 15338100). […] Blots were imaged on an Infrared fluorescence imaging system using Li-Cor 9120 Odyssey (LI-COR Biosciences, Bad Homburg, Germany). Protein band intensity quantification was done using ImageJ (National Institutes of Health, Bethesda, MD, USA).

Molecule | red/yellow puncta ratio (autophagosome-lysosome fusion) (HepG2 WT cells [1]) | LC3B-II/LC3B-I ratio (western blot) (HepG2 ATP7B^−/− cells [2]) | TGN fraction of EGFP-ATP7B (HepG2 WT cells [3]; 400 µM CuSO4, 24 h) | fold increase of EGFP-ATP7B colocalization with lysosomal structures vs basal medium condition (HepG2 WT cells [3]; 400 µM CuSO4, 24 h) | colocalization of EGFP-ATP7B with lysosomal structures (LAMP1) (HepG2 WT cells [3]; 400 µM CuSO4, 24 h, percentage from mean Pearson's correlation coefficient, 30 cells) [%] | fold elevation of EGFP-ATP7B colocalization with LC3B vs basal copper concentration (HepG2 WT cells [3]; high CuSO4 concentration (400 µM), 24 h) [fold] | colocalization of EGFP-ATP7B with LC3B (HepG2 WT cells [3]; high CuSO4 concentration (400 µM), 24 h, from mean Pearson's correlation coefficient, 30 cells) [%] | LC3B-II level (western blot) (HepG2 WT cells [4]) | red/yellow puncta ratio (autophagosome-lysosome fusion) (HepG2 ATP7B^−/− cells [5]) | ATP7B in elution fraction of GST-LC3B pull-down (LC3B)
O=S(=O)([O-])[O-].[Cu+2] [CuSO4] | increased red/yellow puncta ratio | did not significantly alter | no TGN fraction was detectable | about 1.2 fold | 83.6 | 4.8 | 11.6 | significant increase of LC3B-II | significantly decreased | –
B1 | – | – | – | – | – | – | – | – | – | largely reduced
